According to patent US8486931B2, “Substituted oxindole compounds” (Abbott GmbH & Co. KG, priority 2007, dated 2013):

Target: T1, human vasopressin V1b receptor (Homo sapiens, UniProt P47901)
T1 construct: expressed in transfected cells; host or cells: CHO-K1 (cell line hV1b-3H2_CHO), membrane preparation
T1 sequence (P47901 1-424): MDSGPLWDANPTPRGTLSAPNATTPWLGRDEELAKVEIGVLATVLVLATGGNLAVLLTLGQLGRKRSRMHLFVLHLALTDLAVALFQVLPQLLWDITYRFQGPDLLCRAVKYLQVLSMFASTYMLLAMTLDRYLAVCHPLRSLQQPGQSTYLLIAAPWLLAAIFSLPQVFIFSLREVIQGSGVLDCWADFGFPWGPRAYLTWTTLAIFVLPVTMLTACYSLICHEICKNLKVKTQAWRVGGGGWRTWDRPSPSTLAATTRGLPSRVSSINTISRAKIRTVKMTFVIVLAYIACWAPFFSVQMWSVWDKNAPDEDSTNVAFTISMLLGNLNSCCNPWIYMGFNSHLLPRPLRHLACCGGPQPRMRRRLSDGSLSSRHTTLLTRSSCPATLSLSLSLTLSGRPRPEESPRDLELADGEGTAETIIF
Experiment: Vasopressin V1b receptor binding assay
Details: membranes from CHO-K1 cells with stably expressed human V1b receptors, 1.5 nM 3H-AVP displacement; with more than one stereogenic center: the diastereomer with stronger affinity
Protocol: Such compounds can be investigated in suitable assays which establish the affinity to a receptor, with the affinity constant Ki represening a measure of the potency of the compounds and a smaller value representing a larger potency. The compounds of the invention were tested in the following receptor binding assay for their affinity for the V1 b receptor.
Vasopressin V1 b Receptor Binding Assay:
The test substances were dissolved in a concentration of 10^−2 M in DMSO (dimethyl sulfoxide) and further diluted to 5×10^−4 M to 5×10^−9 M in DMSO. This series of DMSO predilutions was diluted 1:10 with assay buffer. The substance concentration was again diluted 1:5 in the assay mixture (2% DMSO in the mixture).
The membrane pellet was again homogenized and centrifuged as described and then taken up in 50 mM Tris-HCl, pH 7.4, homogenized and stored in aliquots frozen in liquid nitrogen at −190° C.
The incubation buffer was: 50 mM Tris, 10 mM MgCl2, 0.1% BSA, pH 7.4.
The nonspecific binding was determined with 1 μM AVP (Bachem #H1780). All determinations were carried out as triplicate determinations. After incubation (60 minutes at room temperature), the free radioligand was removed by vacuum filtration (Skatron cell harvester 7000) through Whatman GF/B glass fiber filter mats, and the filters were transferred into scintillation vials. The liquid scintillation measurement took place in a Tricarb model 2000 or 2200CA instrument (Packard). Conversion of the measured cpm into dpm was carried out with the aid of a standard quench series.
The binding parameters were calculated by nonlinear regression in SAS.
The above assay was used to measure the affinities of the compounds of the invention for the human vasopressin V1 b receptor and to determine with affinity constants (Ki).

Compound | Ki [nM]
CCOc1nc(Cl)ccc1C1(N2CCN(c3ccncc3)CC2)C(=O)N(S(=O)(=O)c2cccc3cccnc23)c2ccc(C#N)cc21 (racemic) [Example 24, (±)-5-Cyano-3-(6-chloro-2-ethoxypyridin-3-yl)-3-(4-pyridin-4-ylpiperazin-1-yl)-1-(quinoline-8-sulfonyl)-2,3-dihydro-1H-indol-2-one] | < 10
CCOc1nc(Cl)ccc1C1(N2CC3CC2CN3c2ccncc2)C(=O)N(S(=O)(=O)c2ccc(OC)cn2)c2ccc(C#N)cc21 (racemic) [Example 155, (±)-5-Cyano-3-(6-chloro-2-ethoxy-pyridin-3-yl)-1-(5-methoxy-pyridine-2-sulfonyl)-3-((1S,4S)-5-pyridin-4-yl-2,5-diaza-bicyclo[2.2.1]hept-2-yl)-2,3-dihydro-1-2-one] | 10 to 50
(±)-5-Cyano-3-(2-ethoxy-5-methoxyphenyl)-3-[4-(2-ethylpyridin-4-yl)piperazin-1-yl]-1-(quinoline-8-sulfonyl)-2,3-dihydro-1H-indol-2-one [Example 58] | < 10
CCOc1cc(F)ccc1C1(N2CCN(c3ccncc3)CC2)C(=O)N(S(=O)(=O)c2ccc(C)cn2)c2ccc(C#N)cc21 (racemic) [Example 49, (±)-5-Cyano-3-(2-ethoxy-4-fluorophenyl)-1-(5-methylpyridine-2-sulfonyl)-3-(4-pyridin-4-ylpiperazin-1-yl)-2,3-dihydro-1H-indol-2-one] | 10 to 50
CCOc1ccc(OC)cc1C1(N2CCN(c3ccnc(C4CC4)c3)CC2)C(=O)N(S(=O)(=O)c2cccc3cccnc23)c2ccc(C#N)cc21 (racemic) [Example 66, (±)-5-Cyano-3-[4-(2-cyclopropylpyridin-4-yl)piperazin-1-yl]-3-(2-ethoxy-5-methoxyphenyl)-1-(quinoline-8-sulfonyl)-2,3-dihydro-1H-indol-2-one] | < 10
CCOc1cc(OC)ccc1C1(N2CCN(c3ccnc(C(C)C)c3)CC2)C(=O)N(S(=O)(=O)c2ccc(OC)cn2)c2ccc(C#N)cc21 (racemic) [Example 175, (±)-5-Cyano-3-(2-ethoxy-4-methoxy-phenyl)-3-[4-(2-isopropyl-pyridin-4-yl)-piperazin-1-yl]-1-(5-methoxy-pyridine-2-sulfonyl)-2,3-dihydro-1H-indol-2-one] | < 10
CCOc1cc(F)ccc1C1(N2CCN(c3ccncc3)CC2)C(=O)N(S(=O)(=O)c2ccc(OC)cn2)c2ccc(C#N)cc21 (racemic) [Example 32, (±)-5-Cyano-3-(2-ethoxy-4-fluorophenyl)-1-(5-methoxypyridine-2-sulfonyl)-3-(4-pyridin-4-ylpiperazin-1-yl)-2,3-dihydro-1H-indol-2-one] | < 10
CCOc1ccc(C)cc1C1(N2CCN(c3ccncc3)CC2)C(=O)N(S(=O)(=O)c2ccc(OC)c3cccnc23)c2ccc(C#N)cc21 (racemic) [Example 159, (±)-5-Cyano-3-(2-ethoxy-5-methyl-phenyl)-1-(5-methoxy-quinoline-8-sulfonyl)-3-(4-pyridin-4-yl-piperazin-1-yl)-2,3-dihydro-1H-indol-2-one] | < 10
(+)-5-Cyano-3-(6-chloro-2-ethoxy-pyridin-3-yl)-1-(5-methoxy-pyridine-2-sulfonyl)-3-[4-(2-methyl-pyridin-4-yl)-piperazin-1-yl]-2,3-dihydro-1H-indol-2-one [Example 152] | < 10
COc1nc(Cl)ccc1C1(N2CCN(c3ccncc3)CC2)C(=O)N(S(=O)(=O)c2cccc3cccnc23)c2ccc(C#N)cc21 (racemic) [Example 19, (±)-5-Cyano-3-(6-chloro-2-methoxypyridin-3-yl)-3-(4-pyridin-4-ylpiperazin-1-yl)-1-(quinoline-8-sulfonyl)-2,3-dihydro-1H-indol-2-one] | 10 to 50
(+)-5-Cyano-3-(2-ethoxy-5-methoxy-phenyl)-1-(5-methoxy-pyridine-2-sulfonyl)-3-[4-(4-methyl-piperazin-1-yl)-piperidin-1-yl]-2,3-dihydro-1H-indol-2-one [Example 158] | < 10
CCOc1ccccc1C1(N2CCN(c3ccncc3)CC2)C(=O)N(S(=O)(=O)c2ccc(C)cn2)c2ccc(C#N)cc21 (racemic) [Example 11, (±)-5-Cyano-3-(2-ethoxyphenyl)-1-(5-methylpyridine-2-sulfonyl)-3-(4-pyridin-4-yl-piperazin-1-yl)-2,3-dihydro-1H-indol-2-one] | 10 to 50

Other lines, results leading:

Ki [nM] | Compound
10 to 50 | COc1ncccc1C1(N2CCN(c3ccncc3)CC2)C(=O)N(S(=O)(=O)c2cccc3cccnc23)c2ccc(C#N)cc21 (racemic) [Example 4, (±)-5-Cyano-3-(2-methoxypyridin-3-yl)-3-(4-pyridin-4-ylpiperazin-1-yl)-1-(quinoline-8-sulfonyl)-2,3-dihydro-1H-indol-2-one]
< 10 | COc1nc(Cl)ccc1C1(N2CCN(c3ccncc3)CC2)C(=O)N(S(=O)(=O)c2cccc3cccnc23)c2ccc(Cl)cc21 (racemic) [Example 10, (±)-5-Chloro-3-(6-chloro-2-methoxypyridin-3-yl)-3-(4-pyridin-4-ylpiperazin-1-yl)-1-(quinoline-8-sulfonyl)-1,3-dihydroindol-2-one]
< 10 | CCOc1ccc(OC)cc1C1(N2CCN(C3CCN(C)CC3)CC2)C(=O)N(S(=O)(=O)c2ccc(OC)c3cccnc23)c2ccc(C#N)cc21 (racemic) [Example 161, (±)-5-Cyano-3-(2-ethoxy-5-methoxy-phenyl)-1-(5-methoxy-quinoline-8-sulfonyl)-3-[4-(1-methyl-piperidin-4-yl)-piperazin-1-yl]-2,3-dihydro-1H-indol-2-one]
10 to 50 | COc1ccc(OC)c(C2(N3CCN(c4ccncc4)CC3)C(=O)N(S(=O)(=O)c3cccc4c(C)ccnc34)c3ccc(C#N)cc32)c1 (racemic) [Example 50, (±)-5-Cyano-3-(2,5-dimethoxyphenyl)-1-(4-methylquinoline-8-sulfonyl)-3-(4-pyridin-4-yl-piperazin-1-yl)-2,3-dihydro-1H-indol-2-one]
10 to 50 | Cc1cccnc1C1(N2CCN(c3ccncc3)CC2)C(=O)N(S(=O)(=O)c2cccc3cccnc23)c2ccc(Cl)cc21 (racemic) [Example 9, (±)-5-Chloro-3-(3-methylpyridin-2-yl)-3-(4-pyridin-4-ylpiperazin-1-yl)-1-(quinoline-8-sulfonyl)-1,3-dihydroindol-2-one]
10 to 50 | CCOc1ccccc1C1(N2CCN(c3ccncc3)CC2)C(=O)N(S(=O)(=O)c2cccc3cccnc23)c2ccc(C#N)cc21 (racemic) [Example 38, (±)-5-Cyano-3-(2-ethoxyphenyl)-3-(4-pyridin-4-ylpiperazin-1-yl)-1-(quinoline-8-sulfonyl)-2,3-dihydro-1H-indol-2-one]
10 to 50 | CCOc1nc(Cl)ccc1C1(N2CCN(c3ccncc3)CC2)C(=O)N(S(=O)(=O)c2cccc3c(C)ccnc23)c2ccc(C#N)cc21 (racemic) [Example 30, (±)-5-Cyano-3-(6-chloro-2-ethoxypyridin-3-yl)-1-(4-methylquinoline-8-sulfonyl)-3-(4-pyridin-4-ylpiperazin-1-yl)-2,3-dihydro-1H-indol-2-one]
< 10 | CCOc1ccc(OC)cc1C1(N2CCN(C3CCNCC3)CC2)C(=O)N(S(=O)(=O)c2ccc(OC)cn2)c2ccc(C#N)cc21 (racemic) [Example 172, (±)-5-Cyano-3-(2-ethoxy-5-methoxy-phenyl)-1-(5-methoxy-pyridine-2-sulfonyl)-3-(4-piperidin-4-yl-piperazin-1-yl)-2,3-dihydro-1H-indol-2-one]
< 10 | CCOc1ccc(OC)cc1C1(N2CCN(c3ccncc3)CC2)C(=O)N(S(=O)(=O)c2ccc(F)c3cccnc23)c2ccc(C#N)cc21 (racemic) [Example 81, (±)-5-Cyano-3-(2-ethoxy-5-methoxyphenyl)-1-(5-fluoroquinoline-8-sulfonyl)-3-(4-pyridin-4-ylpiperazin-1-yl)-2,3-dihydro-1H-indol-2-one]
10 to 50 | CCOc1ccc(OC)cc1C1(N2CCN(c3ccncc3)CC2)C(=O)N(S(=O)(=O)c2ccc(OC)c3cccnc23)c2ccc(C#N)cc21 (single isomer, unassigned; (+)) [Example 162, (+)-5-Cyano-3-(2-ethoxy-5-methoxy-phenyl)-1-(5-methoxy-quinoline-8-sulfonyl)-3-(4-pyridin-4-yl-piperazin-1-yl)-2,3-dihydro-1H-indol-2-one]
